Patent publication US20140031388A1, “AKT INACTIVATION BY TOCOPHERYL DERIVATIVES” (priority 2012, published 2014)
Like-named read-outs stand apart in the source and are kept apart here.

How the values were obtained:
LNCaP and PC-3 cells = experiment: MTT viability assay, one value stated for both prostate cancer lines; type: cell-based; details: MTT, serum-free medium; one value for LNCaP and PC-3; read-out: IC50, antiproliferative effect / viability
Protocol: (§1) The prostate cancer cell lines, LNCaP and PC-3, were purchased from American Type Culture Collection (Manassas, Va.) and maintained in RPMI 1640 medium containing 10% heat-inactivated fetal bovine serum at 37° C. in a humidified incubator containing 5% CO2. The LNCaP-abl cells were a generous gift from Dr. Qianben Wang (The Ohio State University). Normal prostate epithelial cells were purchased from Lonza (Walkersville, Md.) and were cultured in the vendor-recommended defined prostate epithelial cell growth medium. For experiments, LNCaP cells were plated on poly-D-lysine-coated culture flasks at a density of 12,000 cells per cm^2 surface area for 24 hours, followed by treatment with test agents in serum-free RPMI 1640 medium. The α- and γ-tocopherols were purchased from Sigma-Aldrich (St. Louis, Mo.). The tocopherol derivatives, α- and γ-VE5, were synthesized by the inventors.
(§2) LNCaP cells were plated into poly-D-lysine-coated 96-well plates and PC-3 and LNCaP-abl cells into uncoated plates at the density of 5,000 cells per well in the presence of 10% FBS. Normal prostate epithelial cells were plated into uncoated plates at a density of 8,000 cells per well. Exposure to test agents in serum-free medium was initiated 24 hours later. After 24 hours of treatment, cells were incubated with MTT [3-(4,5-dimethylthiazol-2-yl)-2,5-diphenyl-2H-tetrazolium bromide] (TCI America; 0.5 mg/ml, final concentration) for an additional 2 hours. The medium was then removed from each well and replaced with DMSO to dissolve the reduced MTT dye for subsequent colorimetric measurement of absorbance at 595 nm. Cell viabilities are calculated as percentages of that in the corresponding vehicle-treated control group.

[1] = tested on: Normal prostate epithelial cells; experiment: Viability / apoptosis in normal prostate epithelial cells; type: cell-based
Protocol: as §1, §2

[2] = tested on: mTORC2 (mTOR, rictor, SGK, PKCα); experiment: Western blot of mTORC2 components and downstream targets; type: cell-based
Protocol: (§3) Cells were exposed to the test agents in 10-cm dishes for 24 hours and then collected by scraping. The cell pellets were washed once with PBS, and then lysed at 4° C. over 30 min of incubation in a sodium dodecyl sulfate (SDS) lysis buffer containing 1% SDS, 50 mM Tris HCl (pH 8.1), 10 mM EDTA and […] protease inhibitor cocktail (Sigma-Aldrich). The cell debris was pelleted by centrifugation for 20 min at 14,000×g, and 1 μl of each supernatant was used for determination of protein concentration using a colorimetric bicinchoninic assay (Pierce, Rockford, Ill.). The remaining sample was added to equal volume of 2×SDS-polyacrylamide gel electrophoresis sample loading buffer (62.5 mM Tris-HCl, pH 6.8, 4% SDS, 5% β-mercaptoethanol, 20% glycerol, 0.1% bromophenol blue), followed by incubation in boiling water for 5 min. Equivalent amounts of total protein were resolved in SDS-polyacrylamide gels, and then transferred to nitrocellulose membranes using a semidry transfer cell. The transblotted membrane was washed twice with Tris-buffered saline containing 0.1% Tween 20 (TBST). After blocking with TBST containing 5% nonfat milk for 40 min, the membrane was incubated with the appropriate primary antibody (1:1000) in TBST-1% nonfat milk at 4° C. overnight. The membrane was then washed three times with TBST for a total of 15 min, followed by incubation with goat anti-rabbit or anti-mouse IgG-horseradish peroxidase conjugates (1:2000) for 1 hour at room temperature and four washes with TBST for a total of 1 hour. The immunoblots were visualized by enhanced chemiluminescence (GE Healthcare Life Sciences).

[3] = tested on: phosphorylation of Ser473 in Akt; experiment: Western blot of Akt phosphorylation at Ser473; type: cell-based; details: LNCaP and PC-3 cells, Thr308 not altered
Protocol: as §3

LNCaP cells = experiment: MTT viability assay, LNCaP; type: cell-based; details: Homo sapiens, 1% FBS-containing or serum-free RPMI 1640 medium for 24 h
Protocol: as §1
as §2, with “Exposure to test agents in serum-free medium was initiated 24 hours later.” left out

PC-3 cells = experiment: MTT viability assay, PC-3; type: cell-based; details: Homo sapiens
Protocol: as §1
as §2, with “Exposure to test agents in serum-free medium was initiated 24 hours later.” left out

[4] = target: T1, PH domain of Akt (GST-PH domain fusion protein) (Homo sapiens, UniProt P31749); experiment: Surface plasmon resonance binding, Akt PH domain; details: Table 3; binding affinities to the Akt PH domain; read-out: Kd
T1 construct: made in house
Excerpt: The cDNA fragments corresponding to the putative PH domain sequences of PHLPP1 (+115 to +372), PDK1 (+1225 to +1671), Akt1 (+1 to +447) and ILK (+538 to +646) were PCR-amplified using the plasmids pcDNA-HA-PHLPP1, pWZL-Neo-Myr-FLAG-PDPK1, pcDNA-HA-PKB-T308D-S473D, and pCMV-SPORT-ILK (Addgene) as templates. The PCR products were then cloned into EcoRI/XhoI sites of the pGEX-4T1 expression vector (GE Healthcare Life Sciences) to generate four constructs (pGEX-4T1-PHLPP1, pGEX-4T1-PDPK1, pGEX-4T1-AKT1, pGEX-4T1-ILK) for the expression of GST-PH domain fusion proteins. The mutated Akt1 Y38G PH domain was generated from pGEX-4T1-AKT1 by site-directed mutagenesis using the QuikChange II XL Site-Directed Mutagenesis Kit (Agilent Technologies). The expression and purification of GST-PH domain fusion proteins were performed essentially as described previously. Thomas et al., Curr Biol 12, 1256 (2002). The purified PH domains were analyzed by SDS-PAGE using an overloaded gel with purities were estimated to be >95% using ImageJ software.
Binding experiments were performed using a Biacore T100 system (GE Healthcare, Piscataway, N.J.). The GST-PH domain fusion proteins were immobilized on a CM5 S Sensorchip using Biacore's Amine Coupling Kit to a level of 17,000 response units. VE5 compounds and di-octanoyl PIP3 at concentrations ranging from 0.1 to 100 μM and 1 to 20 μm, respectively, were injected at a high flow rate (30 μL/min) over the biosensor surface for binding analyses. DMSO concentrations in all samples and running buffer were 1% (v/v) or less. Data were analyzed using Biacore T100 Evaluation Software.

[5] = PC-3, 1% FBS-containing or serum-free RPMI 1640 medium for 24 h, read-out: IC50 (μM) PC-3
[6] = PC-3, Table 4, effect of chain length on antiproliferative activity, read-out: IC50
[7] = Table 3, antitumor activities against PC-3 cells, read-out: IC50

T1 sequence (P31749 5-108 limits assumed): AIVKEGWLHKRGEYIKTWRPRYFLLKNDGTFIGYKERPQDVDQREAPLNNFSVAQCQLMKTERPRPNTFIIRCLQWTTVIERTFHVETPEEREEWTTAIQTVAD

SMILES	IC50 (LNCaP cells) [µM]	IC50 (PC-3 cells; [5]) [µM]	also measured
Cc1c(O)cc2c(c1C)O[C@](C)(CCC[C@H](C)CCC[C@H](C)CCCC(C)C)CC2 [γ-tocopherol, reference compound]	–	–	IC50 (LNCaP and PC-3 cells): 100 to 150 µM; apoptosis in normal prostate epithelial cells [1]: resistant; abundance or phosphorylation of mTORC2 components and targets (mTOR, rictor, SGK, PKCα) [2]: no effect; effect on phosphorylation of Akt at Ser473 [3]: dose-dependently reduced
Cc1c(O)cc2c(c1C)O[C@](C)(CCCC(C)CCCC(C)C)CC2 (stereo partly drawn) [Compound 27, (2R)-2-(4,8-dimethylnonyl)-2,7,8-trimethylchroman-6-ol]	30	–	–
CCCCCCCCC1(C)CCc2cc(O)cc(F)c2O1 (stereo not drawn) [Compound 12, 8-fluoro-2-methyl-2-octylchroman-6-ol]	–	8.5	IC50 (PC-3 cells; [6]): 8.5 µM
CCc1ccc(CCC2(C)CCc3cc(O)cc(F)c3O2)cc1 (stereo not drawn) [Compound 13, 2-(4-ethylphenethyl)-8-fluoro-2-methyl-chroman-6-ol]	–	9	IC50 (PC-3 cells; [6]): 9 µM
CC(C)CCCC1(C)CCc2c(O)cccc2O1 (racemic) [Compound 31, 2-methyl-2-(4-methylpentyl)chroman-5-ol]	18	–	–
CC(C)CCCC1(C)CCc2cc(N)ccc2O1 (racemic) [Compound 32, 2-methyl-2-(4-methylpentyl)chroman-6-amine]	> 50	–	–
CC(C)CCCC1(C)CCc2cc(O)cc(O)c2O1 (stereo not drawn) [Compound 4, 2-methyl-2-(4-methylpentyl)chroman-6,8-diol]	–	27	Kd [4]: 2 µM; IC50 (PC-3 cells; [7]): 27 µM
CC(C)CCCC1(C)CCc2cc(O)ccc2O1 (racemic) [Compound 29, 2-methyl-2-(4-methylpentyl)chroman-6-ol]	40	–	–
COc1cc(O)cc2c1OC(C)(CCCC(C)C)CC2 (stereo not drawn) [Compound 5, 8-methoxy-2-methyl-2-(4-methylpentyl)-chroman-6-ol]	–	28	Kd [4]: 3.1 µM; IC50 (PC-3 cells; [7]): 28 µM
CC(C)CCCC1(C)CC(=O)c2c(O)cc(N3CCCC3)cc2O1 (racemic) [Compound 37, 5-hydroxy-2-methyl-2-(4-methylpentyl)-7-(pyrrolidin-1-yl)chroman-4-one]	> 50	–	–
CC(C)CCCC1(C)CCc2ccc(O)c(O)c2O1 (racemic) [Compound 35, 2-methyl-2-(4-methylpentyl)chroman-7,8-diol]	> 50	–	–
Cc1c(O)cc2c(c1C)OC(C)(CCCC(C)C)CC2 (racemic) [rac-VE5]	20	–	–
CCCCCCCCC1(C)CCc2cc(O)cc(C)c2N1 (stereo not drawn) [Compound 10, 2,8-dimethyl-2-octyl-1,2,3,4-tetrahydro-quinolin-6-ol]	–	8.5	IC50 (PC-3 cells; [6]): 8.5 µM
Cc1c(C)c2c(c(C)c1O)CC[C@@](C)(CCCC(C)CCCC(C)C)O2 (stereo partly drawn) [Compound 28, (2R)-2-(4,8-dimethylnonyl)-2,5,7,8-tetramethylchroman-6-ol]	42	–	–
CC(C)CCCC1(C)CCc2c(O)cc(N3CCCC3)cc2O1 (racemic) [Compound 36, 2-methyl-2-(4-methylpentyl)-7-(pyrrolidin-1-yl)chroman-5-ol]	21	–	–
COc1ccc2c(c1)CCC(C)(CCCC(C)C)O2 (racemic) [Compound 30, 6-methoxy-2-methyl-2-(4-methylpentyl)-chroman]	40	–	–
Cc1cc2c(cc1O)C(=O)CC(C)(CCCC(C)C)O2 (racemic) [Compound 34, 6-hydroxy-2,7-dimethyl-2-(4-methylpentyl)chroman-4-one]	30	–	–
Cc1cc(O)cc2c1OC(C)(CCCC(C)C)CC2 (stereo not drawn) [Compound 2, 2,8-dimethyl-2-(4-methylpentyl)chroman-6-ol]	–	9	Kd [4]: 0.6 µM; IC50 (PC-3 cells; [7]): 9 µM
CC(C)CCCC1(C)CC(=O)c2cc(O)ccc2O1 (racemic) [Compound 33, 6-hydroxy-2-methyl-2-(4-methylpentyl)chroman-4-one]	30	–	–
CC(C)CCCC1(C)CCc2cc(O)cc(C(F)(F)F)c2O1 (racemic) [Compound 3, 2-methyl-2-(4-methylpentyl)-8-(trifluoro-methyl)chroman-6-ol]	–	8	Kd [4]: 0.7 µM; IC50 (PC-3 cells; [7]): 8 µM
Cc1c(O)cc2c(c1C)NC(C)(CCCC(C)C)CC2 (stereo not drawn) [Compound 9, 2,7,8-trimethyl-2-(4-methylpentyl)-1,2,3,4-tetrahydroquinolin-6-ol]	–	15	Kd [4]: 0.1 µM; IC50 (PC-3 cells; [7]): 15 µM
CC(C)CCCC1(C)CCc2cc(O)cc(Br)c2O1 (stereo not drawn) [Compound 8, 8-bromo-2-methyl-2-(4-methylpentyl)-chroman-6-ol]	–	7	Kd [4]: 0.65 µM; IC50 (PC-3 cells; [7]): 7 µM
CC(C)CCCC1(C)CCc2cc(O)cc(F)c2O1 (stereo not drawn) [Compound 7, 8-fluoro-2-methyl-2-(4-methylpentyl)-chroman-6-ol]	–	7	Kd [4]: 0.5 µM; IC50 (PC-3 cells; [7]): 7 µM
COCCCC1(C)CCc2cc(O)cc(F)c2O1 (stereo not drawn) [Compound 11, 8-fluoro-2-(3-methoxypropyl)-2-methyl-chroman-6-ol]	–	> 30	IC50 (PC-3 cells; [6]): > 30 µM
